Values joined by “and” are separate entries in the source; they are usually repeats but may differ in a detail not shown here. Equal entries are not always repeated.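 Five concentrations, 48 hours, 96-well plates. GI50: concentration for 50% inhibition of growth. TGI denotes the concentration required for complete inhibition of growth.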 Some results are limits rather than exact numbers.

Common to all, as to assay: DTP human tumour cell line panel, 48 h
Experiment [1] relates to ACHN renal.
Experiment [2] has as its system HT29 colon.
Experiment [3] has as its system UO-31 renal.
Experiment [4] concerns MCF7 breast.
The test system of experiment [5] is IGROV1 ovarian.
Experiment [6] has as its system EKVX NSCLC.
For experiment [7], the system named is SK-MEL-5 melanoma.
For experiment [8], the system named is NCI-H522 lung.
Experiment [9] relates to SNB-19 CNS.
Experiment [10] deals with TK-10 renal.

Consider `COc1ccc(/C=C(\C#N)c2cc3ccccc3n2C)cc1`, for which the GI50 in [1] is 0.654 µM; in [2] it was 0.347 µM; in [3], 0.924 µM; in experiment [4], 0.343 µM; in experiment [5], 0.526 µM; in experiment [6], 0.765 µM. Also, the GI50 in experiment [7] is 0.504 µM; in experiment [8], 0.407 µM; in [9], 0.492 µM; in experiment [10], 4.51 µM. Moreover, the concentration for total growth inhibition (TGI) is above 100 µM in experiment [1]; above 34.1 µM in experiment [2]; above 100 µM in experiment [3]; above 100 µM in experiment [4]; above 100 µM in [5]; above 100 µM in experiment [6]. The TGI in experiment [7] is 16.9 µM; in [8] it was 5.03 µM; in [9], above 100 µM; in experiment [10], above 100 µM.

Turning to `CC1OC(O)C(O)C(O)C1O` (stereo not drawn), the concentration for total growth inhibition (TGI) in [1], in [2], in experiment [3], in experiment [4], in [5] and in experiment [6] was above 100 µM each time. Further, the TGI in experiment [7], in [8], in experiment [9] and in experiment [10] was above 100 µM throughout.

Regarding `O=[N+]([O-])c1ccc2c(N=Nc3c(O)ccc4ccccc34)c(O)cc(S(=O)(=O)O)c2c1`, the GI50 is 18.1 µM in experiment [1]; 49.6 µM in experiment [2]; 10.9 µM in [3]; 27.7 µM in experiment [5]; 39.4 µM in [6]; 46.7 µM in experiment [7]. In addition, the GI50 in [8] was 17.4 µM; in [9], 19.3 µM; in [10], 87.3 µM. Also, the concentration for total growth inhibition (TGI) in experiment [1] is 50 µM and > 100 µM; in experiment [2], 50 µM and > 100 µM; in experiment [3], 18.9 µM and 51.5 µM; in experiment [4] it was above 100 µM; in experiment [5], 50 µM and > 100 µM; in [6], above 100 µM. Besides, the TGI in experiment [7] is 50 µM and > 100 µM; in experiment [8], 50 µM and > 100 µM; in [9], 50 µM and > 100 µM; in [10], 50 µM and > 100 µM.

With `Oc1c(CN2CCCC2)cc(COCc2ccccc2)c2cccnc12`, the GI50 in experiment [1] was 0.358 µM; in experiment [2] it was 10.4 µM; in [3], 0.158 µM; in [4] it was 2.82 µM; in [5] it was 3.54 µM; in experiment [6], 2.01 µM. The GI50 is 1.12 µM in experiment [7], 2.62 µM in [8], 3.53 µM in experiment [9] and 1.84 µM in experiment [10]. For the same compound, the TGI in [1] stood at 10.2 µM; in experiment [2], 26.5 µM; in experiment [3], 2.55 µM; in [4], 13.3 µM; in experiment [5], 13.8 µM; in experiment [6], 15.6 µM. The TGI in [7] came out at 4.76 µM; in experiment [8] it was 9.97 µM; in experiment [9] it was 92.4 µM; in [10], 22.3 µM.

As for `CC#CC(=O)N1CCC[C@H]1c1nc(-c2ccc(C(=O)Nc3ccccn3)cc2)c2c(N)nccn12`, the GI50 in experiment [1] is 23.8 µM; in experiment [2] it was 55.1 µM; in experiment [3], 32.1 µM; in [4], 58 µM; in experiment [5], 18 µM; in experiment [6], 35 µM. Further, the GI50 is 40.5 µM in experiment [7], 13.9 µM in experiment [8], above 79.9 µM in [9] and 21.1 µM in [10]. Besides, the TGI is above 100 µM in experiment [1]; above 100 µM in experiment [2]; above 100 µM in [3]; above 100 µM in experiment [4]; above 83.8 µM in [5]; above 100 µM in experiment [6]. The TGI in experiment [7], in experiment [8], in experiment [9] and in experiment [10] was above 100 µM in each case.

Consider `Cn1c(=O)c2[nH]c(COc3ccc(C(C)(C)C)cc3)nc2n(C)c1=O`, for which the GI50 is 9.58 µM in [1]; 29.3 µM in [2]; 13.6 µM in experiment [3]; 17.1 µM in experiment [4]; 14.1 µM in experiment [5]; 3.34 µM in [6]. Moreover, the GI50 in experiment [7] was 4.68 µM; in experiment [8], 19.6 µM; in experiment [9], 82.3 µM; in experiment [10], 23.9 µM. In addition, the TGI in experiment [1] is 89.8 µM; in experiment [2], above 100 µM; in [3] it was 89.5 µM; in [4] it was 62.8 µM; in [5], 44.5 µM; in [6], above 100 µM. For the same compound, the TGI in experiment [7] was 20.6 µM; in experiment [8] it was 88 µM; in experiment [9], above 100 µM; in experiment [10] it was 99.6 µM.

As for `CCS/C(Nc1ccccc1)=C(\C#N)C(=O)Nc1ccc(OC)cc1`, the GI50 in experiment [1] is 5.04 µM; in experiment [2], 3.47 µM; in experiment [3], 5.49 µM; in [4], 2.71 µM; in experiment [5], 5.3 µM; in experiment [6] it was 4.42 µM. The GI50 in [7] is 2.2 µM; in experiment [8], 2.2 µM; in [9] it was 3.55 µM; in [10] it was 24.3 µM. In addition, the TGI is above 100 µM in [1]; 33.3 µM in experiment [2]; above 100 µM in [3]; above 100 µM in experiment [4]; above 100 µM in experiment [5]; above 100 µM in experiment [6]. The concentration for total growth inhibition (TGI) in [7] was 8.19 µM; in experiment [8], 9.68 µM; in experiment [9], above 100 µM; in experiment [10] it was above 100 µM.

Take `O=C(/C=C/c1ccco1)Nc1ncc(Cc2ccc(F)cc2)s1`: the GI50 in experiment [1] was 0.0749 µM; in [2] it was 0.0366 µM; in [3] it was 0.194 µM; in [4], 0.0612 µM; in [5] it was 0.167 µM; in experiment [6], 0.303 µM. Moreover, the GI50 in [7] was 0.0476 µM; in experiment [8], 0.0255 µM; in [9], 0.112 µM; in experiment [10], 10.2 µM. Besides, the TGI in experiment [1], in experiment [2], in experiment [3], in experiment [4], in experiment [5] and in experiment [6] was above 100 µM each time. Further, the TGI was 0.191 µM in experiment [8], above 100 µM in experiment [9] and above 100 µM in experiment [10].

For orientation: GI50 means the concentration that inhibits growth by half. The term TGI denotes the concentration giving total growth inhibition. A lower TGI goes with more potent growth arrest.
